Article PMC6973020, “Quinoline‐Conjugated Ruthenacarboranes: Toward Hybrid Drugs with a Dual Mode of Action” (Chemmedchem, 2019)

Test: Ester hydrolysis in PBS/DMSO at pH 7.4 (time‐resolved UV‐vis)
Format: physicochemical
Conditions: PBS/DMSO (1 vol%), 20 μM
Excerpt: Following our recent investigations on the self‐assembly behavior of ruthenacarborane complexes in aqueous solutions at physiologic pH,9, 10 the behavior of free acid 3 and ester 4 in aqueous solution was studied via UV‐vis spectroscopy and Nanoparticle Tracking Analysis (NTA) in phosphate‐buffered saline (PBS)/DMSO mixtures (pH 7.4). UV‐vis spectroscopy is a useful tool to follow the ester hydrolysis over time, when a UV‐(vis)‐active chromophore is present (in the case of 4, the quinoline ring). Experiments were carried out at room temperature (23 and 25 °C, for UV‐vis and NTA, respectively), to simulate the conditions of the working solutions used for cell cultures, and at 37 °C (UV‐vis), to simulate the conditions of incubation of cells.
UV‐vis spectroscopy. Stock solutions of 3, 4 and 8‐hydroxyquinoline (8‐HQ) in distilled DMSO were freshly prepared before use ([3]=2.11 mM; [4]=6.56 mM; [8‐HQ]=25.76 mM). An aliquot of the DMSO stock solution of 3, 4 or 8‐HQ was added to 3 mL PBS solution, so that the final concentration was 20 μM. DMSO content was adjusted to 1 vol % (considering the amount of DMSO from the stock solutions) before addition of the ruthenacarborane, in all samples. Time‐resolved UV‐vis spectra of 4 were measured, over a period of 26 h at room temperature (23±1 °C) and at 37±0.3 °C to follow hydrolysis of the ester bond of 4 at physiologic pH (7.4). PBS/DMSO solutions of 3 and 8‐HQ were also measured, as references. All measurements were corrected by subtracting the blank (PBS+1 vol % DMSO). Experiments were run in duplicate.

time after which hydrolysis is pronounced (pH 7.4, 23 °C): 5 h
time to complete hydrolysis of the ester bond (pH 7.4, 23 °C): 23 h
time to complete hydrolysis of the ester bond (pH 7.4, 37 °C): 2.5 h
Substance: closo ‐[3‐(η^6‐p‐Cymene)‐1‐(quinolin‐8‐yl‐acetate)‐3,1,2‐RuC2B9H10] [Compound 4]
